Active and inactive are the calls of the source. No cut-off for these calls is given here.
What was measured:
[1] = system: A-431; assay: Antiproliferative activity against human A431 cells after 72 hrs by MTT assay; assay type: functional, cell-based; conditions: A-431, 72 h
[2] = system: A549; assay: Antiproliferative activity against human A549 cells after 72 hrs by MTT assay; assay type: functional, cell-based; conditions: A549, 72 h
[3] = system: A549; assay: Anticancer activity against human A549 cells xenografted in nude BALB/C mouse assessed as decrease in tumor volume at 50 mg/kg, po qd for 12 days; assay type: functional, organism-based
[4] = system: Mus musculus; assay: Toxicity in nude BALB/C mouse assessed as weight loss at 50 mg/kg, po qd for 12 days; assay type: organism-based; conditions: in vivo, 288 h
[5] = target: Epidermal growth factor receptor (Homo sapiens, UniProt P00533); assay: Inhibition of wild-type EGFR tyrosine kinase (unknown origin) assessed as ATP level by luminescence analysis
[6] = target: Epidermal growth factor receptor (Homo sapiens, UniProt P00533, L858R); assay: Inhibition of EGFR tyrosine kinase L858R mutant (unknown origin) assessed as ATP level by luminescence analysis; assay type: protein assay
[7] = target: Vascular endothelial growth factor receptor 2 (Homo sapiens, UniProt P35968); assay: Inhibition of VEGFR-2 (unknown origin) assessed as ATP level by luminescence analysis
Chain of Vascular endothelial growth factor receptor 2 (P35968 whole entry): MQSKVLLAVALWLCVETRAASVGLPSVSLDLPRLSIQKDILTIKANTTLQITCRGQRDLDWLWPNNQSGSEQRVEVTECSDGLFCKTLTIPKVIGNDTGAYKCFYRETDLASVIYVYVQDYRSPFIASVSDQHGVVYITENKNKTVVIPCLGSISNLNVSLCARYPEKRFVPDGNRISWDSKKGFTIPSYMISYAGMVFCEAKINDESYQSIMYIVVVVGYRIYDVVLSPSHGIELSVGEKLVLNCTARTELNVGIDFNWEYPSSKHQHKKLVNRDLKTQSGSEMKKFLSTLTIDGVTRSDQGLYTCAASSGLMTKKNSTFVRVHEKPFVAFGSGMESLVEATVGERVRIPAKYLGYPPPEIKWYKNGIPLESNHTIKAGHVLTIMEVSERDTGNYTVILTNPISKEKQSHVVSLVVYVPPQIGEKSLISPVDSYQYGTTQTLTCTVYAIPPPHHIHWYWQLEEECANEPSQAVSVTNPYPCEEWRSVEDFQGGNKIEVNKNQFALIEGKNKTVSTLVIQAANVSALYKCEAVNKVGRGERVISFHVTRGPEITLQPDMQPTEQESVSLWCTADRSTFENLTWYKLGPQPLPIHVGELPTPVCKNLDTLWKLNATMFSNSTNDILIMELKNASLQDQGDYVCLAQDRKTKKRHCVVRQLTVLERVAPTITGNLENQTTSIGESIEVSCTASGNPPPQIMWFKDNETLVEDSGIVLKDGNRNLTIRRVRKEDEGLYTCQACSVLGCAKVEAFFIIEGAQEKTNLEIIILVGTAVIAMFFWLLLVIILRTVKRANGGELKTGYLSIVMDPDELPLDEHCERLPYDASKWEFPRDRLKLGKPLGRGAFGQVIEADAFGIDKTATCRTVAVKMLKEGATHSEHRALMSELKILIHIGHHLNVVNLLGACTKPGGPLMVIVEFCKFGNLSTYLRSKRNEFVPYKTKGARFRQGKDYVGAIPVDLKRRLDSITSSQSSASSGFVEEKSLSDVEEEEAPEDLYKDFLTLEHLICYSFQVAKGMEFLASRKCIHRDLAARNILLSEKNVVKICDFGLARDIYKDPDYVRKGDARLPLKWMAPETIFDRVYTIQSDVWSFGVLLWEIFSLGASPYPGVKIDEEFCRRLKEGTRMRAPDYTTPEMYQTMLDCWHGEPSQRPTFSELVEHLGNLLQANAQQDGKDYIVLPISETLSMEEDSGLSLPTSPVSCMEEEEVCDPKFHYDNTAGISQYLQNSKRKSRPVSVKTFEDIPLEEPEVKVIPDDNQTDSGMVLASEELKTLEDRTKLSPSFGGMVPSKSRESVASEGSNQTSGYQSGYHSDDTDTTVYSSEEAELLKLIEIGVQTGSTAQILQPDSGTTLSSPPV

Chain of Epidermal growth factor receptor (Homo sapiens, UniProt P00533) (P00533 whole entry): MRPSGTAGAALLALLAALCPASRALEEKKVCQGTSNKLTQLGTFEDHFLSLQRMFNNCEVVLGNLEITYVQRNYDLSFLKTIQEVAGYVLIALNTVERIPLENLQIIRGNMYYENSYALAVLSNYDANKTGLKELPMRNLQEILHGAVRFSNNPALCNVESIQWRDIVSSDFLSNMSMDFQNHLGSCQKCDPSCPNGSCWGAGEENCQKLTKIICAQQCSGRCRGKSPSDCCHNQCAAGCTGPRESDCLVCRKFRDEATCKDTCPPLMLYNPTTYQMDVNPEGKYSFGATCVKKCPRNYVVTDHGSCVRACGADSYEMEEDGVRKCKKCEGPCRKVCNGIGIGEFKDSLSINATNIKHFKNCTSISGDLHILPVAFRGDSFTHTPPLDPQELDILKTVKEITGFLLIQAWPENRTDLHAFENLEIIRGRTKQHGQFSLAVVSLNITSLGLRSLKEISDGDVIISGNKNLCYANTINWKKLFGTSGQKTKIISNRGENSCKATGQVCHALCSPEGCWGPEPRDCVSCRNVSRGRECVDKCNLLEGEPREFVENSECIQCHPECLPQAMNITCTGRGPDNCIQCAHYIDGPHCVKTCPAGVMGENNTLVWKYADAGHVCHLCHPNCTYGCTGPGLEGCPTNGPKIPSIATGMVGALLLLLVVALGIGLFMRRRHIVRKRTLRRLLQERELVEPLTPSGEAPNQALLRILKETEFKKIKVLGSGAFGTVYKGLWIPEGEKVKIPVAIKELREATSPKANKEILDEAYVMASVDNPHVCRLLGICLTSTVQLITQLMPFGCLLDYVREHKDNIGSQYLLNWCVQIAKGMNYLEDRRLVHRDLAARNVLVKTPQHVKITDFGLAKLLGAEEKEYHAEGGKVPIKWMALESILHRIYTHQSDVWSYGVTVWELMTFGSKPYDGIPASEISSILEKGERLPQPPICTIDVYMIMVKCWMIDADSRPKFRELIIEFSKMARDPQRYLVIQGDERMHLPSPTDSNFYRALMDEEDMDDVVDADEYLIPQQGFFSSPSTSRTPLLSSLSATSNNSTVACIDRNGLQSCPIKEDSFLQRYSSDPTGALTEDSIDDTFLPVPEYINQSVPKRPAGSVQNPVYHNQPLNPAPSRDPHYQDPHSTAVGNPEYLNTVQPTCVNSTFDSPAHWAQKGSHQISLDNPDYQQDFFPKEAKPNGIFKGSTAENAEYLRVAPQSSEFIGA
Chain of Epidermal growth factor receptor (Homo sapiens, UniProt P00533, L858R) (P00533 25-1210 L858R limits assumed): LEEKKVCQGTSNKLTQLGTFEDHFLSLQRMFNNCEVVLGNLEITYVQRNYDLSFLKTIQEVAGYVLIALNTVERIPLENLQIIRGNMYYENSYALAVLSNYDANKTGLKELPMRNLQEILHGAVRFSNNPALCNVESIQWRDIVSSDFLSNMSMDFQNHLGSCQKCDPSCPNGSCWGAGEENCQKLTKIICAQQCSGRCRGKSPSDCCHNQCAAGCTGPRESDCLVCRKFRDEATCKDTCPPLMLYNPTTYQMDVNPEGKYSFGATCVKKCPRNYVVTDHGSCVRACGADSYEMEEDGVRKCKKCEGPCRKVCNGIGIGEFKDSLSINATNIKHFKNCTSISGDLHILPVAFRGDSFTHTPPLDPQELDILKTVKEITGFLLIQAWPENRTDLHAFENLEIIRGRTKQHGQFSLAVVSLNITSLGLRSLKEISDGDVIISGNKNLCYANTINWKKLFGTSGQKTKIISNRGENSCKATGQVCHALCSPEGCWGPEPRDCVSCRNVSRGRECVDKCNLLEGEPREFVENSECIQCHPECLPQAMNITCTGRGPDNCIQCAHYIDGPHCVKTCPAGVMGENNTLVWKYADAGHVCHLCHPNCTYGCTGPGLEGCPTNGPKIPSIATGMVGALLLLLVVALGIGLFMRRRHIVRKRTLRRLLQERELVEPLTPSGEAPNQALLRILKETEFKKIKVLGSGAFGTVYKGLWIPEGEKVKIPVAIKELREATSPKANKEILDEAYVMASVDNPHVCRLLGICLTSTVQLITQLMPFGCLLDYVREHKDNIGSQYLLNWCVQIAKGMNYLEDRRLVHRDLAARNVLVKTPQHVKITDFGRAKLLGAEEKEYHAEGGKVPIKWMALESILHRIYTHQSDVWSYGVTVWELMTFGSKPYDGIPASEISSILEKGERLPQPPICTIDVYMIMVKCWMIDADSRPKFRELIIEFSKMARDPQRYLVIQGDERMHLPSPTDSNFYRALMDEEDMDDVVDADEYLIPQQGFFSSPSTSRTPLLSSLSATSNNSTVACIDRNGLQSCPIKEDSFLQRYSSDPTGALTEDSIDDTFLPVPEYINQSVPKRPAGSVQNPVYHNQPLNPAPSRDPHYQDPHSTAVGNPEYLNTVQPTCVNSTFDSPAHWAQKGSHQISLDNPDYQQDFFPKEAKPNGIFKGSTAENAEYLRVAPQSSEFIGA

Compound	IC50 [1] [µM]	IC50 [2] [µM]	other results
CN1CCN(C(=O)c2ccc(NC(=O)Nc3ccc4ncnc(Nc5cccc(C(F)(F)F)c5)c4c3)cc2)CC1	> 10	8.31	
C[C@@H](Nc1ncnc2ccc(NC(=O)Nc3ccc(CN4CCN(C)CC4)cc3)cc12)c1ccccc1	> 10	> 10	
CN1CCN(Cc2ccc(NC(=O)Nc3ccc4ncnc(Nc5cccc(C(=O)N6CCCC6)c5)c4c3)cc2)CC1	> 10	> 10	
Cc1ccc(NC(=O)Nc2ccc3ncnc(Nc4cccc(C(F)(F)F)c4)c3c2)cc1	> 10	4.14	
COc1cc2ncnc(Nc3ccc(F)c(Cl)c3)c2cc1OCCCN1CCOCC1 [GEFITINIB]			Activity [3]: Active; Activity [4]: Non-toxic
O=C(Nc1ccc(CN2CCCCC2)cc1)Nc1ccc2ncnc(Nc3cccc(C(F)(F)F)c3)c2c1	1.55	1.05	IC50 [5]: 0.005 µM; IC50 [6]: 0.0105 µM
CN(C)Cc1ccc(NC(=O)Nc2ccc3ncnc(Nc4cccc(C(F)(F)F)c4)c3c2)cc1	1.03	1.12	
O=C(Nc1ccc(CN2CCCC2)cc1)Nc1ccc2ncnc(Nc3cccc(C(F)(F)F)c3)c2c1	1.36	0.83	IC50 [5]: 0.0041 µM; IC50 [6]: 0.0115 µM; IC50 [7]: 0.565 µM; Activity [3]: Active; Activity [4]: Non-toxic
CCN(CC)c1ccc(NC(=O)Nc2ccc3ncnc(Nc4cccc(C(F)(F)F)c4)c3c2)cc1	6.46	3.52	
C[C@@H](Nc1ncnc2ccc(NC(=O)NCCN3CCN(C)CC3)cc12)c1ccccc1	> 10	> 10	
CN1CCN(Cc2ccc(NC(=O)Nc3ccc4ncnc(Nc5ccc(OCc6cccc(F)c6)c(Cl)c5)c4c3)cc2)CC1	0.64	0.9	IC50 [7]: > 1 µM
CN1CCN(Cc2ccc(NC(=O)Nc3ccc4ncnc(Nc5ccc(F)c(Cl)c5)c4c3)cc2)CC1	4	3.48	
C#Cc1cccc(Nc2ncnc3ccc(NC(=O)Nc4ccc(CN(CC)CC)cc4)cc23)c1	1.24	2.25	
O=C(Nc1cccc(CN2CCCCC2)c1)Nc1ccc2ncnc(Nc3cccc(C(F)(F)F)c3)c2c1	1.33	1.06	
CN1CCN(C(=O)c2ccc(NC(=O)Nc3ccc4ncnc(Nc5ccc(OCc6cccc(F)c6)c(Cl)c5)c4c3)cc2)CC1	> 10	7.39	
O=C(Nc1ccc(CN2CCOCC2)cc1)Nc1ccc2ncnc(Nc3cccc(C(F)(F)F)c3)c2c1	8.49	4.03	

Compound	IC50 [1] [µM]	IC50 [2] [µM]	other results
CN1CCN(C(=O)c2ccc(NC(=O)Nc3ccc4ncnc(Nc5ccc(F)c(Cl)c5)c4c3)cc2)CC1	> 10	> 10	
CN1CCN(Cc2ccc(NC(=O)Nc3ccc4ncnc(Nc5ccc(F)c(F)c5)c4c3)cc2)CC1	> 10	> 10	
C#Cc1cccc(Nc2ncnc3ccc(NC(=O)Nc4ccc(CN5CCN(C)CC5)cc4)cc23)c1	2.81	5.17	
CN1CCN(Cc2ccc(NC(=O)Nc3ccc4ncnc(Nc5cccc(C(F)(F)F)c5)c4c3)cc2)CC1	2.41	1.65	
CCN(CC)Cc1ccc(NC(=O)Nc2ccc3ncnc(Nc4cccc(C(F)(F)F)c4)c3c2)cc1	3.98	2.07	
CN1CCN(CCNC(=O)Nc2ccc3ncnc(Nc4cccc(C(F)(F)F)c4)c3c2)CC1	> 10	> 10	
C#Cc1cccc(Nc2ncnc3ccc(NC(=O)Nc4ccc(CN5CCOCC5)cc4)cc23)c1	> 10	> 10	
COc1ccc(Nc2ncnc3ccc(NC(=O)Nc4ccc(CN5CCN(C)CC5)cc4)cc23)cc1Cl	2.01	3.57	
O=C(Nc1ccc(C(=O)N2CCOCC2)cc1)Nc1ccc2ncnc(Nc3ccc(F)c(Cl)c3)c2c1	> 10	> 10	
O=C(Nc1ccccc1)Nc1ccc2ncnc(Nc3cccc(C(F)(F)F)c3)c2c1	> 10	> 10	
C#Cc1cccc(Nc2ncnc3ccc(NC(=O)Nc4ccc(C(=O)N5CCN(C)CC5)cc4)cc23)c1	> 10	> 10	
O=C(Nc1cccc(CN2CCCC2)c1)Nc1ccc2ncnc(Nc3cccc(C(F)(F)F)c3)c2c1	1.23	0.86	
COc1ccc(NC(=O)Nc2ccc3ncnc(Nc4cccc(C(F)(F)F)c4)c3c2)cc1	4.95	9.47	
CN1CCN(c2ccc(NC(=O)Nc3ccc4ncnc(Nc5cccc(C(F)(F)F)c5)c4c3)cc2)CC1	2.2	2.76	
COC(=O)c1cccc(Nc2ncnc3ccc(NC(=O)Nc4ccc(CN5CCN(C)CC5)cc4)cc23)c1	5.63	> 10	
